In DBAASP:
In brackets after ≈: the same amount, converted by molar mass.

Legend:
Assay in all cases: ≥ marks a high value that may be exact or a test limit, other limits are often not marked, values filed in µg/mL are converted to µM
[1] = system: Bacillus subtilis var. niger ATCC 9372
Escherichia coli K91BK = system: Escherichia coli K91BK
[2] = system: Bacillus anthracis Sterne 34F2
[3] = system: Burkholderia thailandensis
[4] = system: Bacillus subtilis ATCC 9372

SMILES | MIC [1] [µM] | MIC (Escherichia coli K91BK) [µM] | MIC [2] [µM] | MIC [3] [µM] | MIC [4] [µM]
CC(=O)NCC(=O)N[C@@H](Cc1c[nH]c2ccccc12)C(=O)NCC(=O)N[C@@H](CO)C(=O)N[C@@H](Cc1ccccc1)C(=O)N[C@@H](Cc1ccccc1)C(=O)N[C@@H](CCCCN)C(=O)N[C@@H](CCCCN)C(=O)N[C@@H](C)C(=O)N[C@@H](C)C(=O)N[C@@H](Cc1cnc[nH]1)C(=O)N[C@H](C(=O)NCC(=O)N[C@@H](CCCCN)C(=O)N[C@@H](Cc1cnc[nH]1)C(=O)N[C@H](C(=O)NCC(=O)N[C@@H](CCCCN)C(=O)N[C@@H](C)C(=O)N[C@@H](C)C(=O)N[C@@H](CC(C)C)C(=O)N[C@H](C(=O)N[C@@H](Cc1cnc[nH]1)C(=O)N[C@@H](Cc1ccc(O)cc1)C(=O)N[C@@H](CC(C)C)C(N)=O)[C@@H](C)O)C(C)C)C(C)C [GWGSFFKKAAHVGKHVGKAALTHYL] | 17.7 (≈ 48.7 µg/mL) | ≥ 100 | ≥ 79.4 | – | –
CC[C@H](C)[C@H](NC(=O)[C@H](CCCN=C(N)N)NC(=O)[C@H](CC(C)C)NC(=O)[C@H](CCC(N)=O)NC(=O)[C@H](CCCCN)NC(=O)[C@H](CC(C)C)NC(=O)[C@H](CC(C)C)NC(=O)[C@H](CC(C)C)NC(=O)[C@@H](NC(=O)[C@H](CCCCN)NC(=O)[C@H](CC(=O)O)NC(=O)[C@H](C)NC(=O)[C@@H](NC(=O)[C@H](CCCCN)NC(=O)[C@H](CCCCN)NC(=O)[C@H](CC(=O)O)NC(=O)[C@@H](NC(=O)[C@H](Cc1cnc[nH]1)NC(C)=O)C(C)C)C(C)C)C(C)C)C(=O)N[C@@H](CCSC)C(=O)N[C@@H](CCCN=C(N)N)C(=O)N[C@@H](CC(C)C)C(=O)N[C@@H](CC(C)C)C(=O)N[C@H](C(=O)N[C@@H](CCCN=C(N)N)C(=O)N[C@@H](CC(C)C)C(N)=O)[C@@H](C)O [HVDKKVADKVLLLKQLRIMRLLTRL] | – | – | ≥ 35 | ≥ 50 | 16 (≈ 48.7 µg/mL)
CC[C@H](C)[C@H](NC(=O)CNC(=O)[C@H](CCCCN)NC(=O)[C@H](CCCN=C(N)N)NC(=O)[C@@H](NC(=O)[C@@H](NC(=O)[C@H](CCCN=C(N)N)NC(=O)[C@H](CCCN=C(N)N)NC(=O)[C@H](CC(C)C)NC(=O)[C@H](CC(N)=O)NC(=O)[C@H](CCCCN)NC(C)=O)[C@@H](C)CC)[C@@H](C)CC)C(=O)N[C@@H](Cc1cnc[nH]1)C(=O)N[C@H](C(=O)N[C@H](C(=O)N[C@@H](CCCCN)C(=O)N[C@@H](CCCCN)C(=O)N[C@@H](Cc1ccc(O)cc1)C(=O)NCC(N)=O)[C@@H](C)CC)[C@@H](C)CC [KNLRRIIRKGIHIIKKYG] | 12.5 (≈ 28.1 µg/mL) | ≥ 100 | ≥ 100 | ≥ 100 | –
